Experimental data published in ChEMBL document CHEMBL1201862, “PubChem BioAssay data set” (2004).
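In this assay, cells in 96-well plates receive the compound at five concentrations for 48 hours. Endpoints are linearly interpolated between the surrounding concentrations. GI50 is the concentration that inhibits growth by half.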 The source made the active and inactive calls. Rule as the data show it: active = GI50 up to about 1.1 µM and inactive = higher.

Key:
Assay in all cases: growth of human tumour cells (NCI), 48 h
CAKI-1 = system: CAKI-1
CCRF-CEM = system: CCRF-CEM
EKVX = system: EKVX
HCT-116 = system: HCT-116
IGROV-1 = system: IGROV-1
LOX IMVI = system: LOX IMVI
M14 = system: M14
MCF7 = system: MCF7
MDA-MB-435 = system: MDA-MB-435
NCI-H460 = system: NCI-H460
NCI-H522 = system: NCI-H522
OVCAR-3 = system: OVCAR-3
RXF 393 = system: RXF 393
SK-MEL-2 = system: SK-MEL-2
SK-OV-3 = system: SK-OV-3
SN12C = system: SN12C
SNB-19 = system: SNB-19
SNB-75 = system: SNB-75
SR = system: SR
UACC-257 = system: UACC-257

SMILES | GI50 (CAKI-1) | GI50 (CCRF-CEM) | GI50 (EKVX) | GI50 (HCT-116) | GI50 (IGROV-1) | GI50 (LOX IMVI) | GI50 (M14) | GI50 (MCF7) | GI50 (MDA-MB-435) | GI50 (NCI-H460) | GI50 (NCI-H522) | GI50 (OVCAR-3) | GI50 (RXF 393) | GI50 (SK-MEL-2) | GI50 (SK-OV-3) | GI50 (SN12C) | GI50 (SNB-19) | GI50 (SNB-75) | GI50 (SR) | GI50 (UACC-257)
Cn1c(=O)c2c(ncn2CN2CCN(Cn3cnc4c3c(=O)n(C)c(=O)n4C)CC2)n(C)c1=O | 77.3 µM (inactive) | 21.9 µM (inactive) | 29.1 µM (inactive) | 16.9 µM (inactive) | 78.5 µM (inactive) | 24.2 µM (inactive) | 38.5 µM (inactive) | 16.9 µM (inactive) | 86.5 µM (inactive) | 19.2 µM (inactive) | 44.7 µM (inactive) | > 100 µM (inactive) | 20.2 µM (inactive) | > 100 µM (inactive) | > 100 µM (inactive) | 46.9 µM (inactive) | > 100 µM (inactive) | 74.8 µM (inactive) | 28.6 µM (inactive) | 47.1 µM (inactive)
COC(=O)c1nc2c3c(cccc3c1C(=O)OC)Nc1ccccc1-2 | 50.2 µM (inactive) | 13.2 µM (inactive) | 65.8 µM (inactive) | 25.2 µM (inactive) | 32 µM (inactive) | 32.3 µM (inactive) | 44.8 µM (inactive) | 60.4 µM (inactive) | 83.6 µM (inactive) | 25.7 µM (inactive) | 10.7 µM (inactive) | 36.6 µM (inactive) | 35.7 µM (inactive) | 28.1 µM (inactive) | 24 µM (inactive) | 33.4 µM (inactive) | 51.3 µM (inactive) | 34.5 µM (inactive) | 78.3 µM (inactive) | 61.4 µM (inactive)
C=C1C(=O)OC2C1C(OC(=O)/C(C)=C/C)CC(O)(CCl)C1C(O)C3OC3(C)C21O (stereo not given) | 13.2 µM (inactive) | 12.4 µM (inactive) | > 50 µM (inactive) | 10.8 µM (inactive) | > 50 µM (inactive) | 18.9 µM (inactive) | 23.3 µM (inactive) | 18.2 µM (inactive) | 48.5 µM (inactive) | > 50 µM (inactive) | 0.7 µM (active) | 27.5 µM (inactive) | 9.77 µM (inactive) | > 50 µM (inactive) | > 50 µM (inactive) | > 50 µM (inactive) | > 50 µM (inactive) | > 50 µM (inactive) | 17 µM (inactive) | > 50 µM (inactive)
Nc1cc2c(c3ccccc13)C(CCl)CN2C(=O)c1cc2cc(NC(=O)Nc3ccc4[nH]c(C(=O)N5CC(CCl)c6c5cc(N)c5ccccc65)cc4c3)ccc2[nH]1 (stereo not given) | < 0.01 µM (active) | < 0.01 µM (active) | 1.74 µM (inactive) | 0.172 µM (active) | 0.256 µM (active) | 0.0358 µM (active) | < 0.0303 µM (active) | 0.0284 µM (active) | 0.548 µM (active) | < 0.01 µM (active) | 0.0509 µM (active) | 0.467 µM (active) | 0.0719 µM (active) | 0.995 µM (active) | 0.506 µM (active) | 0.0656 µM (active) | 0.0785 µM (active) | 0.0297 µM (active) | < 0.01 µM (active) | 1.16 µM (inactive)
Cc1cc(=O)[nH]c2c1C(=O)c1c(C)cc(=O)n(C)c1C2=O | 0.0678 µM (active) | 0.321 µM (active) | 0.205 µM (active) | 0.1 µM (active) | 0.202 µM (active) | 0.122 µM (active) | 0.0147 µM (active) | 0.0168 µM (active) | 0.0142 µM (active) | 0.187 µM (active) | 0.046 µM (active) | 0.0508 µM (active) | 0.138 µM (active) | 0.0208 µM (active) | 0.182 µM (active) | 0.074 µM (active) | 0.0185 µM (active) | 0.0176 µM (active) | 0.125 µM (active) | 0.0152 µM (active)
Oc1nc2c(c(-c3cccc(Cl)c3)n1)COC/C2=C\c1cccc(Cl)c1 | > 100 µM (inactive) | 64.4 µM (inactive) | > 100 µM (inactive) | > 100 µM (inactive) | > 100 µM (inactive) | > 100 µM (inactive) | > 100 µM (inactive) | > 100 µM (inactive) | > 100 µM (inactive) | > 100 µM (inactive) | > 100 µM (inactive) | > 100 µM (inactive) | > 100 µM (inactive) | > 100 µM (inactive) | > 100 µM (inactive) | > 100 µM (inactive) | > 100 µM (inactive) | > 100 µM (inactive) | > 100 µM (inactive) | > 100 µM (inactive)
